{"source": "patent US8361970B2", "about": "“Growth factor binding molecules” (University of South Florida, priority 2000, dated 2013)", "key": {"[1]": {"system": "PDGF-AA stimulated PDGF receptor phosphorylation and Erk1/Erk2 activation", "assay": "PDGF-AA stimulation of PDGF receptor phosphorylation and Erk1/Erk2 activation in NIH 3T3 cells", "assay_type": "cell-based", "details": "NIH 3T3, PDGF-AA 10 ng/ml", "procedure": "Starved NIII 3T3 cells (PDGF-BB and PDGF-AA), NIH 3T3 cells overexpressing either EGFR (EGF) or Flk-1 (VEGF) are pre-treated with the indicated concentrations of GFB-111 for 5 minutes before 10 minutes of stimulation with PDGF-BB (10 ng/ml), PDGF-AA (10 ng/ml), EGF (100 ng/ml) and VEGF (50 ng/ml). Cell lysates are run on SDS-PAGE gels, then transferred to nitrocellulose and Western blotted with anti-phosphotyrosine (4G 10) or anti-phosphorylated Erk1/Erk2 (New England Biolabs)."}, "EGF": {"target": "T1, EGF (Homo sapiens, UniProt P01133)", "T1 construct": "host or cells: NIH 3T3 cells overexpressing EGFR carry the receptor", "T1 sequence (P01133 971-1023 limits assumed, species assumed)": "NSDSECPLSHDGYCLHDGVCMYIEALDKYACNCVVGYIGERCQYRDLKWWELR", "assay": "Inhibition of [125I]-EGF binding to NIH 3T3 cells overexpressing EGFR", "details": "10 μM", "procedure": "(§1) NIH 3T3 (PDGF) or NIH 3T3 cells overexpressing either EGFR (EGF), IGFR (IGF) or Flk-1 (VEGF), are incubated with [^125I]-PDGF, [^125I]-EGF, [^125I]-IGF or [^125I]-VEGF, respectively (50,000 cpm per well) and increasing concentrations of GFB-111 or GFB-116. Cells are incubated at 4° C. for 1-3 h. After discarding media, the cells are washed 3 times with PBS and three times with Tris 25 mM pH 8.0, 1% T-X-100, 10% glycerol, 1% SDS. Lysates plus wash are counted. Excess of cold growth factors is used to obtain non-specific binding levels.\n(§2) Whether GFB 111 can block [^125I]-PDGF-BB specific binding in NIH 3T3 cells is determined by pre-treatment of the PDGF-BB with increasing concentrations of GFB-111. FIG. 2C illustrates that in the absence of GFB-111, [^125I]-PDGF-BB is bound by NIH3T3 cells. However, pre-treatment with increasing concentrations of GFB-111, results in a concentration-dependent decrease in PDGF-BB binding."}, "IGF-1": {"target": "T2, IGF-1 (Homo sapiens, UniProt P05019)", "T2 construct": "host or cells: NIH 3T3 cells transfected with the IGF-1R gene carry the receptor", "T2 sequence (P05019 49-118 limits assumed, species assumed)": "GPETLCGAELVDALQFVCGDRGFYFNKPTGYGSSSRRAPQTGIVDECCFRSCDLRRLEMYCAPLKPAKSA", "assay": "Inhibition of [125I]-IGF-1 binding to NIH 3T3 cells overexpressing IGF-1R", "details": "10 μM", "procedure": "as §1, §2"}, "VEGF": {"target": "T3, VEGF (Homo sapiens, UniProt P15692)", "T3 construct": "host or cells: NIH 3T3 cells overexpressing Flk-1 carry the receptor", "T3 sequence (P15692 27-191 isoform P15692-4, species assumed)": "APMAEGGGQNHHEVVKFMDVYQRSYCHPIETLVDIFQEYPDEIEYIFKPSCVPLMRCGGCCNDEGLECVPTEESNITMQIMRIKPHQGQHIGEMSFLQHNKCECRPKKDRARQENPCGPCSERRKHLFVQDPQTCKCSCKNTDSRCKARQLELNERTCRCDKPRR", "assay": "Inhibition of [125I]-VEGF binding to NIH 3T3 cells overexpressing VEGFR (Flk-1)", "procedure": "as §1, §2"}, "[2]": {"system": "bFGF-activation of Erk1/Erk2", "assay": "bFGF activation of Erk1/Erk2 in NIH 3T3 cells", "assay_type": "cell-based", "details": "concentrations as high as 100 μM", "procedure": "In other experiments, starved NIH 3T3 cells (PDGF-AA, PDGF-BB, aFGF, bFGF), NIH 3T3 cells overexpressing EGFR. IGF-1R or Flk-1 and the human breast carcinoma SkBr3 that overexpresses ErbB2 (HRGβ) are pretreated with GFB-111 (100 μM) for 5 min before 10 min stimulation with the indicated growth factors at the concentrations shown above and aFGF (10 ng/ml), bFGF (50 ng/ml), IGF-1 (50 ng/ml) and HRGβ (10 ng/ml). Cell lysates are then immunoblotted with anti-phospho Erk1/Erk2 as described above."}, "[3]": {"system": "IGF-1 stimulated IGF-1R tyrosine phosphorylation", "assay": "Inhibition of IGF-1 stimulated IGFR tyrosine phosphorylation in IGFR/3T3 cells", "assay_type": "cell-based", "details": "100 μM; IGFR/3T3, IGF-1 stimulated", "procedure": "The ability of the GFB library to block the ability of IGF-1 to stimulate the IFG-1 R tyrosine phosphorylation and MAP kinase activation is evaluated using the cell assay described above with IGF-1R/3T3 cells as target cell. […] A preferred embodiment of the invention is a compound that binds to an insulin-like growth factor-1, of the general structure III, wherein R is n-butyl, n-propyl, or benzyl, and X1, X2, X3, and X4 optionally comprise identical cyclic peptide loops of the general structure II, and wherein R1, R2, R3, and R4 are each amino acid side chains that define a tetrapeptide sequence, wherein said tetrapeptide is covalently attached at the amino and carboxy termini of said tetrapeptide to a 3-aminomethyl-5-aminobenzamide linking group."}, "rat glioma C6": {"system": "rat glioma C6", "assay": "Antitumor efficacy, C6 tumor in nude mice", "assay_type": "in vivo"}, "[4]": {"system": "human medulloblastoma DaOY", "assay": "Antitumor efficacy, DaOY xenograft in nude mice", "assay_type": "in vivo", "details": "50 mg per kg per day"}, "[5]": {"system": "angiogenesis in U87-MG tumors", "assay": "Angiogenesis: Factor VIII immunostaining and microvessel count in U87MG tumors", "assay_type": "in vivo, nude mice", "details": "for Microvessel count (Mean ± SD) 250X / Microvessel count (Mean ± SD) 400X: U87-MG tumor", "procedure": "(§3) On the indicated termination day of each nude mouse experiment described above, (see also Table 2), the tumors are extracted and half frozen at −70° C., and half is fixed in 10% neutral buffered formalin for 6 hrs. After fixation the tissue samples are processed into paraffin blocks. Four micrometer-thick tissue sections are obtained from the paraffin blocks and stained with hematoxylin and eosin (H&E) (Richard-Allan Scientific, Kalamazoo, Mich.) using standard histologic techniques. Tissue sections are also subjected to immunostaining for Factor VIII using the avidin biotin peroxidase complex technique (Vectastatin Elite ABC Kit, Vector, Burlingame, Calif.). Rabbit polyclonal FVIII antibody (Von Willebrand Factor, Dako Corporation, Carpinteria, Calif.) is used at 1:400 dilution, following microwave antigen retrieval (4 cycles of 5 minutes each on high in 0.1M citrate buffer)."}, "[6]": {"system": "angiogenesis in C6 tumors", "assay": "Angiogenesis: microvessel count in C6 tumors", "assay_type": "in vivo, nude mice", "procedure": "as §3"}, "[7]": {"system": "angiogenesis in DaOY tumors", "assay": "Angiogenesis: microvessel count in DaOY tumors", "assay_type": "in vivo, nude mice", "procedure": "as §3"}, "B16-F10 melanoma": {"system": "B16-F10 melanoma", "assay": "B16-F10 melanoma tumor growth in immune-competent mice", "assay_type": "in vivo", "details": "immune-competent mouse model"}}, "note": "“And” between values parts separate entries of the source, which are not always exact repeats. Equal entries are not always repeated."}
{"compound": "CCCCOc1c2cc(C(=O)Nc3cc4cc(c3)C(=O)NCC(=O)N[C@@H](CC(=O)O)C(=O)NCC(=O)N[C@@H](Cc3ccc(O)cc3)C(=O)NC4)cc1Cc1cc(C(=O)Nc3cc4cc(c3)C(=O)NCC(=O)N[C@@H](CC(=O)O)C(=O)NCC(=O)N[C@@H](Cc3ccc(O)cc3)C(=O)NC4)cc(c1OCCCC)Cc1cc(C(=O)Nc3cc4cc(c3)C(=O)NCC(=O)N[C@@H](CC(=O)O)C(=O)NCC(=O)N[C@@H](Cc3ccc(O)cc3)C(=O)NC4)cc(c1OCCCC)Cc1cc(C(=O)Nc3cc4cc(c3)C(=O)NCC(=O)N[C@@H](CC(=O)O)C(=O)NCC(=O)N[C@@H](Cc3ccc(O)cc3)C(=O)NC4)cc(c1OCCCC)C2", "note": "[GFB-111]", "values": [{"measurement": "PDGF-AA stimulation of PDGF receptor phosphorylation and Erk1/Erk2 activation", "setting": "[1]", "result": "blocked"}, {"measurement": "Effect on [125I]-EGF binding", "setting": "EGF", "result": "lack of significant effects"}, {"measurement": "Effect on [125I]-IGF-1 binding", "setting": "IGF-1", "result": "lack of significant effects"}, {"measurement": "inhibition at 10 µM", "setting": "VEGF", "result": 50, "unit": "%"}, {"measurement": "bFGF-activation of Erk1/Erk2", "setting": "[2]", "result": "minimally affected"}, {"measurement": "% Inhibition at 100 μM IGF1R-Y-P", "setting": "[3]", "result": "−12.4", "unit": "%"}, {"measurement": "% Tumor growth inhibition", "setting": "rat glioma C6; C6, 50 mpk, day in parentheses in cell", "result": "54% (15) and 64% (15) and 46% (18)"}, {"measurement": "Inhibition of C6 tumor growth in nude mice", "setting": "rat glioma C6; mouse, in vivo", "result": "effective"}, {"measurement": "Growth of DaOY tumors", "setting": "[4]", "result": "minimally affected"}, {"measurement": "Microvessel count (Mean ± SD) 250X", "setting": "[5]; 100 mpk", "result": "7.73 ± 2.61"}, {"measurement": "Microvessel count (Mean ± SD) 400X", "setting": "[5]; 100 mpk", "result": "5.20 ± 1.71"}, {"measurement": "Microvessel count (Mean ± SD) 250X", "setting": "[5]; 200 mpk", "result": "5.13 ± 3.10"}, {"measurement": "Microvessel count (Mean ± SD) 400X", "setting": "[5]; 200 mpk", "result": "3.07 ± 1.94"}, {"measurement": "Inhibition of angiogenesis", "setting": "[5]; U87MG tumors", "result": "strongly"}, {"measurement": "Factor VIII immunostaining in tumors", "setting": "[5]; U87MG, day 32, 50, 100 and 200 mg per kg", "result": "decreased in a dose-dependent manner"}, {"measurement": "Microvessel count (Mean ± SD) 250X", "setting": "[6]; C6 tumor, 50 mpk", "result": "14.27 ± 4.79"}, {"measurement": "Microvessel count (Mean ± SD) 400X", "setting": "[6]; C6 tumor, 50 mpk", "result": "7.97 ± 2.83"}, {"measurement": "Inhibition of angiogenesis", "setting": "[6]; C6 tumors", "result": "to a lesser degree"}, {"measurement": "Microvessel count (Mean ± SD) 250X", "setting": "[7]; DaOY tumor, 50 mpk", "result": "7.20 ± 2.52"}, {"measurement": "Microvessel count (Mean ± SD) 400X", "setting": "[7]; DaOY tumor, 50 mpk", "result": "4.80 ± 1.37"}, {"measurement": "Inhibition of angiogenesis", "setting": "[7]; DaOY tumors", "result": "no effect"}]}
{"compound": "GKGK [GFB-116]", "values": [{"measurement": "Inhibition of growth of B16-F10 melanoma", "setting": "B16-F10 melanoma", "result": "effective"}]}
